Drawing on PubChem BioAssay AID2743 (NMMLSC, 2010), this text covers GFP fluorescence (kMESF) for 80 molecules.

Values joined by “and” are separate entries in the source; they are usually repeats but may differ in a detail not shown here. Equal entries are not always repeated. Active and inactive are the calls of the source.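 Rule for the calls: active = fitted half-maximal concentration for change in GFP expression of 33 µM or less; inactive = the rest.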

The nature of this assay: concentration-dependent AGP1-GFP change, TOR pathway – cell-based, flow cytometry, S. cerevisiae, MLPCN hits, dose response (AID 2743). As to conditions: S. cerevisiae AGP1-GFP strain, flow cytometry GFP, 3 h; at 33 µM (top of the series). On the technique in general: A flow cytometer gives signals particle by particle.
`O=[N+]([O-])c1ccc(N=Nc2c(Cl)cc(O)cc2Cl)cc1`: the GFP fluorescence (kMESF) is 41.8 kMESF (inactive).

For `Cn1ncc(S(=O)(=O)Cc2ccccc2)c(Cl)c1=O`, the GFP fluorescence (kMESF) is 43.9 kMESF (inactive).

For the molecule `N/C(Cc1ccc(Cl)cc1)=N\OC(=O)c1cccc2ccccc12`, the GFP fluorescence (kMESF) is 33 kMESF (inactive).

In the case of `COc1ccc(N2C(=O)C(Cl)=C(Oc3cccc(OC)c3)C2=O)cc1`, the GFP fluorescence (kMESF) was 38.8 kMESF (inactive).

Take `Cc1ccc(N2C(=O)C(Cl)=C(Nc3c(C)n(C)n(-c4ccccc4)c3=O)C2=O)cc1`: the GFP fluorescence (kMESF) is 35 kMESF (inactive).

`COc1ccc(CCNC2=C(Cl)C(=O)N(CCc3ccccc3)C2=O)cc1OC`: the GFP fluorescence (kMESF) is 42 kMESF (inactive).

As to `CC(C)(C)n1nc(-c2ccc(F)cc2)c2c(N)ncnc21`, the GFP fluorescence (kMESF) was 40.2 kMESF (inactive).

Take `O=C(O)c1ccccc1SC1CC(=O)N(c2ccc3c(c2)OCO3)C1=O` (stereo not given): the GFP fluorescence (kMESF) is 47.9 kMESF (inactive).

Regarding `CCc1ccc(OCC(=O)NNC(=S)NC(=O)C2CC2)c(Br)c1`, the GFP fluorescence (kMESF) is 45.2 kMESF (inactive).

With `CN(C)c1ccc(N=Cc2nc(-c3ccccc3)oc2OC(=O)c2ccccc2)cc1`, the GFP fluorescence (kMESF) was 43 kMESF (inactive).

For `COC(=O)/C(=C/c1c[nH]c2ccccc12)[N+](=O)[O-]`, the GFP fluorescence (kMESF) was 39.1 kMESF (inactive).

Regarding `c1ccc(-c2cccc(-c3ccccn3)n2)nc1`, the GFP fluorescence (kMESF) was 38.3 kMESF (inactive).

For the molecule `CCOC(=O)CSC1=NC(=O)/C(=C/c2ccc(Br)cc2)S1`, the GFP fluorescence (kMESF) is 37 kMESF (inactive).

For `Nc1c(C(=O)c2cccs2)sc2nsc(SCCN3CCCCC3)c12`, the GFP fluorescence (kMESF) was 35.6 kMESF (inactive).

In the case of `O=C(COc1c(Br)cc(Br)c2cccnc12)N1CCc2ccccc2C1`, the GFP fluorescence (kMESF) was 28.6 kMESF (inactive).

For the molecule `CS(=O)(=O)c1sc(C#N)c2c1C(=O)CC(c1ccccc1)C2` (stereo not given), the GFP fluorescence (kMESF) was 38.9 kMESF (inactive).

Regarding `O=C(Nc1ccccc1)c1nnsc1S(=O)(=O)c1ccc(Cl)cc1`, the GFP fluorescence (kMESF) is 38.4 kMESF (inactive).

With `COC(=O)CCC(=O)OC1(C)C(=O)C2=COC(c3ccc(OC)cc3)=CC2=C(Br)C1=O` (stereo not given), the GFP fluorescence (kMESF) is 7.85 kMESF (inactive).

`O=C1C=CC(=O)N1c1cccc(-c2ccccc2)c1`: the GFP fluorescence (kMESF) is 44.7 kMESF (inactive).

As for `COc1cccc(/C=C/C(=O)c2c(O)cc(C)oc2=O)c1O`, the GFP fluorescence (kMESF) was 43.2 kMESF (inactive).

Turning to `CN1C(=O)/C(=N\OC(=O)c2cccc3ccccc23)c2ccccc21`, the GFP fluorescence (kMESF) was 38.2 kMESF (inactive).

`O=C1c2ccccc2C(=O)C2OC12` (stereo not given): the GFP fluorescence (kMESF) was 33.7 kMESF (inactive).

As for `O=C(NNC(=S)NC(=O)C12CC3CC(CC(C3)C1)C2)c1ccncc1`, the GFP fluorescence (kMESF) was 33.2 kMESF (inactive).

On to `Oc1c(C(Nc2cccc(C(F)(F)F)c2)c2ccncc2)ccc2cccnc12` (stereo not given), for which the GFP fluorescence (kMESF) was 30.3 kMESF (inactive).

Take `O=C(NC(=S)NNC(=O)c1cnccn1)c1ccc(Cl)cc1`: the GFP fluorescence (kMESF) is 37.6 kMESF (inactive).

On to `COc1ccc(CCNC2=C(Cl)C(=O)N(CCc3ccc(OC)c(OC)c3)C2=O)cc1OC`, for which the GFP fluorescence (kMESF) is 41.5 kMESF (inactive).

`CCCS(=O)(=O)c1nnnn1-c1cccc(OC)c1`: the GFP fluorescence (kMESF) is 35.1 kMESF (inactive).

Regarding `COc1ccc(N/N=C(\C#N)C(N)=O)cc1`, the GFP fluorescence (kMESF) is 52.4 kMESF (inactive).

Turning to `COc1ccccc1OCCCc1c(C)n[nH]c1C`, the GFP fluorescence (kMESF) is 31.1 kMESF (inactive).

Turning to `O=[N+]([O-])c1cc(S(=O)(=O)C(F)(F)F)ccc1Sc1nc2ccccc2s1`, the GFP fluorescence (kMESF) was 39.1 kMESF (inactive).

As for `Cn1ncc2c(O/N=C(\N)c3ccc(C(C)(C)C)cc3)ncnc21`, the GFP fluorescence (kMESF) is 24.7 kMESF (inactive).

Consider `Oc1c(CN2CCCCC2)cc(Br)c2cccnc12`, for which the GFP fluorescence (kMESF) was 46.9 kMESF (inactive).

For `O=c1oc2cc(Oc3c([N+](=O)[O-])cc(C(F)(F)F)cc3[N+](=O)[O-])ccc2c2c1CCCC2`, the GFP fluorescence (kMESF) was 40 kMESF (inactive).

Consider `CSC1=NS(=O)(=O)c2c(C)nn(C)c2S1`, for which the GFP fluorescence (kMESF) was 45.6 kMESF (inactive).

`Oc1ccc(Br)cc1/C=N/Nc1ccccn1`: the GFP fluorescence (kMESF) is 36.6 kMESF (inactive).

Regarding `O=[N+]([O-])c1cc(O)c2ncccc2c1`, the GFP fluorescence (kMESF) was 42.7 kMESF (inactive).

As for `COc1cccc(N=Cc2nc(-c3ccccc3)oc2OC(C)=O)c1`, the GFP fluorescence (kMESF) is 35.9 kMESF (inactive).

For the molecule `CCc1cc(C(=O)Nc2nc(-c3ccccn3)cs2)sc1C`, the GFP fluorescence (kMESF) is 29.2 kMESF (inactive).

Turning to `Cc1cccc(N=Nc2ccc(O)c3ncccc23)c1`, the GFP fluorescence (kMESF) is 40.1 kMESF (inactive).

For `CC(c1ccccc1)N1C(=O)/C(=C/c2ccncc2)SC1=S` (stereo not given), the GFP fluorescence (kMESF) was 24.4 kMESF (inactive).

Turning to `COc1cccc(/C=N/Nc2ccc([N+](=O)[O-])cn2)c1O`, the GFP fluorescence (kMESF) is 29.3 kMESF (inactive).

Turning to `COc1cc(NC(=O)c2cccc(C)c2)ccc1NC(=O)c1cc2ccccc2o1`, the GFP fluorescence (kMESF) is 44.2 kMESF (inactive).

Consider `C#CCOc1c(Br)cc(/C=C2/C(=O)ON=C2C)cc1OC`, for which the GFP fluorescence (kMESF) was 27.6 kMESF (inactive).

For `COc1ccc(C(=O)NC(=S)NNC(=O)c2cnccn2)cc1`, the GFP fluorescence (kMESF) was 42.8 kMESF (inactive).

On to `CCCCNc1c2c3c(cccc3n(C)c1=O)C(=O)c1ccccc1-2`, for which the GFP fluorescence (kMESF) is 36.3 kMESF (inactive).

In the case of `N#Cc1nccnc1S(=O)(=O)c1cccs1`, the GFP fluorescence (kMESF) is 38.7 kMESF (inactive).

On to `Cc1cc(C)c(C)c(S(=O)(=O)ON2C(=O)c3ccccc3C2=O)c1C`, for which the GFP fluorescence (kMESF) was 40 kMESF (inactive).

As to `O=C(Nc1ccc(Cl)cc1Cl)c1cccc(N2C(=O)C=CC2=O)c1`, the GFP fluorescence (kMESF) is 41.1 kMESF (inactive).

`O=c1c2sc(-c3ccccc3)cc2nc2n1CCC2`: the GFP fluorescence (kMESF) was 25 kMESF (inactive).

In the case of `CC(C)C(=O)NC(c1cccs1)c1cc([N+](=O)[O-])c2cccnc2c1O` (stereo not given), the GFP fluorescence (kMESF) is 38.9 kMESF (inactive).

With `O=C(NNC(=S)NC(=O)c1ccco1)c1ccc(F)cc1`, the GFP fluorescence (kMESF) is 43.7 kMESF (inactive).

`Cc1cc(C)c(S(=O)(=O)ON2C(=O)c3ccccc3C2=O)cc1C`: the GFP fluorescence (kMESF) is 42.8 kMESF (inactive).

For the molecule `O=C1N(c2ccccc2C(F)(F)F)O[C@]1(c1ccccc1)C1CCCCC1`, the GFP fluorescence (kMESF) was 34.3 kMESF (inactive).

As for `Cc1c(Cc2ccccc2)c(NCCN(C)C)n2c(nc3ccccc32)c1C#N`, the GFP fluorescence (kMESF) is 45.4 kMESF (inactive).

On to `O=C(NCc1ccc2c(c1)OCO2)c1nc(S(=O)(=O)Cc2ccccc2)ncc1Cl`, for which the GFP fluorescence (kMESF) is 40.9 kMESF (inactive).

Turning to `COc1cc(SSc2cc(OC)cc([N+](=O)[O-])c2N)c(N)c([N+](=O)[O-])c1`, the GFP fluorescence (kMESF) was 48.9 kMESF (inactive).

As to `C=C1C(O)[C@@H]2O[C@]3(CC[C@H](/C=C/C(C)[C@@H]4CC(C)=CC5(O[C@H](C[C@@](C)(O)C(=O)O)CCC5O)O4)O3)CC[C@H]2O[C@@H]1C(O)CC(C)[C@H]1OC2(CCCCO2)CCC1C` (stereo not given in full), the GFP fluorescence (kMESF) was 35.8 kMESF (inactive).

For the molecule `COc1cccc(/C=C2\C(=O)N(c3cccc(C)c3)C(=O)c3ccccc32)c1`, the GFP fluorescence (kMESF) was 45.3 kMESF (inactive).

With `O=C1ON=C(c2ccccc2)/C1=C/c1ccc(-c2ccccc2[N+](=O)[O-])o1`, the GFP fluorescence (kMESF) was 29.1 kMESF (inactive).

On to `COc1ccc(C2(C)ON(c3ccccc3C(F)(F)F)C2=O)cc1` (stereo not given), for which the GFP fluorescence (kMESF) is 36.5 kMESF (inactive).

In the case of `Cc1c(C)c2ccc(Oc3ccc([N+](=O)[O-])cc3C(F)(F)F)c(C)c2oc1=O`, the GFP fluorescence (kMESF) was 33.9 kMESF (inactive).

Take `O=C(Oc1oc(-c2ccco2)nc1C=Nc1ccc(Cl)cc1)c1ccco1`: the GFP fluorescence (kMESF) was 42 kMESF (inactive).

As to `Cc1[nH]c2ccccc2c1C(=O)COC(=O)c1ccc([N+](=O)[O-])s1`, the GFP fluorescence (kMESF) is 16.9 kMESF (inactive).

In the case of `COC(=O)c1cc(N2C(=O)C3C(C2=O)C2(C)C=CC3(C)O2)ccc1Cl` (stereo not given), the GFP fluorescence (kMESF) is 47.1 kMESF (inactive).

Consider `Cc1cccc(Nc2nc(-c3ccccn3)cs2)n1`, for which the GFP fluorescence (kMESF) is 30.1 kMESF (inactive).

`CCCCCCCCCCCCCCCC[n+]1cccc2ccccc21`: the GFP fluorescence (kMESF) is 2.67 kMESF (inactive).

Consider `Cc1cc(C)c2c(c1)/C(=C/C(=O)c1ccc(Br)s1)C(=O)N2`, for which the GFP fluorescence (kMESF) is 42.9 kMESF (inactive).

As to `Cc1ccc(C(=O)O/N=C(\N)Cc2cccs2)c(Cl)c1`, the GFP fluorescence (kMESF) is 22.9 kMESF (inactive).

For the molecule `Cc1ccc(NN2C(=O)C=C(c3ccc(Cl)cc3)C2=O)cc1`, the GFP fluorescence (kMESF) is 44.4 kMESF (inactive).

`COc1cc(N=c2ssnc2Cl)c(OC)cc1Cl`: the GFP fluorescence (kMESF) is 27.6 kMESF (inactive) and 26.1 kMESF (inactive).

On to `COc1cccc2sc(Nc3nc(-c4ccccn4)cs3)nc12`, for which the GFP fluorescence (kMESF) was 34.7 kMESF (inactive).

With `O=C(Cc1ccc(Cl)cc1)NNC(=S)NC(=O)c1cccs1`, the GFP fluorescence (kMESF) is 36.9 kMESF (inactive).

As for `O=C(COc1ccccc1)N1CCN(c2ncnc3c2cnn3-c2ccccc2)CC1`, the GFP fluorescence (kMESF) was 35.1 kMESF (inactive).

With `Cc1ccc(C(=O)Oc2oc(-c3ccccc3)nc2C=Nc2ccc(N(C)C)cc2)cc1`, the GFP fluorescence (kMESF) is 39.3 kMESF (inactive).

`O=C(/C=C/c1ccc(F)cc1)NC(=S)NNC(=O)c1cnccn1`: the GFP fluorescence (kMESF) was 35.8 kMESF (inactive).

Consider `COc1cccc(N=Nc2ccc(O)c3ncccc23)c1`, for which the GFP fluorescence (kMESF) was 45.7 kMESF (inactive).

Regarding `Cc1ccc(S(=O)(=O)c2ncccc2[N+](=O)[O-])cc1`, the GFP fluorescence (kMESF) is 47.1 kMESF (inactive).

As for `O=[N+]([O-])c1cnc(Sc2ccncn2)s1`, the GFP fluorescence (kMESF) is 33.9 kMESF (inactive).

`Nc1nc2ncc(CNc3ccc(C(=O)N[C@@H](CCC(=O)O)C(=O)O)cc3)nc2c(=O)[nH]1`: the GFP fluorescence (kMESF) is 29.1 kMESF (inactive).

Take `O=C(O)c1cccc(S(=O)(=O)Nc2ccc(S(=O)(=O)N3CCOCC3)cc2)c1`: the GFP fluorescence (kMESF) was 36.9 kMESF (inactive).
